Laboratory results reported in article PMC9667784, “Synthesis, biological evaluation and computational studies of pyrazole derivatives as Mycobacterium tuberculosis CYP121A1 inhibitors” (RSC Medicinal Chemistry, 2022).

Target: BTFA-labelled CYP121_S171C (Mycobacterium tuberculosis, UniProt P9WPP7, S171C)
Format: binding

Row | SMILES | 19F NMR perturbations of the FG-loop compared with cYY
1 | CCOc1ccc(-c2nn(-c3ccc(Cl)cc3)cc2Cn2cncn2)cc1 [12d, 1-((1-(4-Chlorophenyl)-3-(4-ethoxyphenyl)-1H-pyrazol-4-yl)methyl)-1H-1,2,4-triazole] | more intense than that of cYY
2 | COc1ccc(-c2nn(-c3ccc(Cl)cc3)cc2Cn2cncn2)cc1 [12b, 1-((1-(4-Chlorophenyl)-3-(4-methoxyphenyl)-1H-pyrazol-4-yl)methyl)-1H-1,2,4-triazole] | more intense than that of cYY
